The test system of this test is human subject with diagnosed osteopenia. Briefly: Mineral bone density (forearm scanner DXT-200) and serum calcium in a subject with osteopenia. Format: in vivo. The note with it: after a one-month break in the administration, following six-month course of 1 g 3 times a day. The method, then: A human subject. The mineral bone density of T−1.4 was measured in the distal antibrachium by means of the forearm scanner DXT-200 available from Osteometer MediTech, Inc. Osteopenia was diagnosed and 1 g of calcium gluconate was administered 3 times a day. A six-month course of preventive medication was conducted. […] That is, the mineral bone density (MBD) became less. […] For reference: MBD normal value—the values of T criterion with a standard deviation of +1 to −1 from the peak bone mass; • 1st degree osteopenia—MBD of −1 to −1.5; • 2nd degree osteopenia—MBD of −1.5 to −2; • 3rd degree osteopenia—MBD of −2 to −2.5; • 1st degree osteoporosis—MBD of −2.5 and less without fractures; • 2nd degree osteoporosis—MBD of −2.5 and less with osteoporotic bone fractures. The densitometric T scale presents the number of standard deviations up and down an average bone mass value. The T criterion decreases in parallel with a gradual reduction in the bone mass with age and is used to evaluate the MBD in adults.
The same human subject with diagnosed osteopenia and the mineral bone density of T −1.6 was administered one capsule of the claimed biologically active food additive 3 times a day A six-month preventive medication course was conducted following the pattern of one-month administration/one-month break. The mineral bone density increased to T −1.2. The serum calcium value normalized. […]

Turning to calcium gluconate, the serum calcium value entry is recorded as “below the normal value”.

The record behind these values is patent US9974856B2, “Method of treating androgen deficiency in women” (Parapharm Ltd., priority 2009, dated 2018).
